Among the test systems are T-47D breast; M14 melanoma; UO-31 renal; SNB-75 CNS; MCF7 breast; UACC-62 melanoma; BT-549 breast; HCC-2998 colon; EKVX NSCLC; RPMI-8226 leukemia.
Holding throughout (assay): NCI tumour cell line growth inhibition, 48 h

Each structure is given as a SMILES string.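 A five-concentration, 48-hour dose response in 96-well plates underlies each endpoint, interpolated linearly between surrounding concentrations. Abbreviation: GI50, concentration required for 50% inhibition of growth. Definition used: TGI = concentration required for complete inhibition of growth.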

Regarding `CCCCCCCCn1ccc2cc(NC(=O)Cn3cc(CN4CCCCC4)nn3)ccc21`, the GI50 with T-47D breast was 1990 nM; in the experiment with M14 melanoma, 1780 nM; in the experiment on UO-31 renal it was 1340 nM; in the experiment with SNB-75 CNS it was 1510 nM; in the experiment with MCF7 breast, 1850 nM; with UACC-62 melanoma it was 1810 nM. Also, the GI50 with BT-549 breast was 10200 nM; in the experiment with HCC-2998 colon, 1660 nM; in the experiment with EKVX NSCLC, 2890 nM. Moreover, the TGI with T-47D breast worked out at 4310 nM; with M14 melanoma it was 3430 nM; in the experiment with UO-31 renal, 2620 nM; with SNB-75 CNS, 2960 nM; with MCF7 breast it was 4290 nM; in the experiment with UACC-62 melanoma, 3510 nM. In addition, the TGI was 23200 nM in the experiment with BT-549 breast, 3280 nM in the experiment on HCC-2998 colon and 13900 nM in the experiment with EKVX NSCLC.
Take `N#C[Se]CCCNS(=O)(=O)C1CC2C=CC1C2` (stereo unspecified): the GI50 is 2550 nM with T-47D breast; 231 nM in the experiment with M14 melanoma; 338 nM in the experiment on UO-31 renal; 588 nM in the experiment on MCF7 breast; 1590 nM with UACC-62 melanoma; 2170 nM in the experiment with RPMI-8226 leukemia. The GI50 with BT-549 breast is 192 nM; in the experiment with HCC-2998 colon, 1950 nM; with EKVX NSCLC, 491 nM. For the same compound, the TGI was 8280 nM in the experiment on T-47D breast; 655 nM in the experiment with M14 melanoma; 1430 nM with UO-31 renal; 5550 nM in the experiment on MCF7 breast; 3380 nM in the experiment on UACC-62 melanoma; 5550 nM in the experiment with RPMI-8226 leukemia. Besides, the TGI with BT-549 breast was found to be 388 nM; in the experiment on HCC-2998 colon, 4730 nM; in the experiment with EKVX NSCLC, 1840 nM.
On to `O=C(c1ccco1)c1c(C(F)(F)F)n([O-])c2ccc(Cl)cc2[n+]1=O`, for which the GI50 in the experiment on T-47D breast was 1410 nM; in the experiment with M14 melanoma, 374 nM; in the experiment with UO-31 renal, 1570 nM; with SNB-75 CNS, 1900 nM; in the experiment on MCF7 breast, 443 nM; in the experiment with UACC-62 melanoma, 574 nM. Also, the GI50 in the experiment on BT-549 breast was 109 nM; with HCC-2998 colon, 101 nM; in the experiment on EKVX NSCLC, 561 nM. Also, the TGI is 3550 nM with T-47D breast; 1670 nM in the experiment with M14 melanoma; 2980 nM with UO-31 renal; 5180 nM in the experiment with SNB-75 CNS; 1990 nM in the experiment with UACC-62 melanoma; 730 nM in the experiment on BT-549 breast. Further, the TGI stood at 216 nM with HCC-2998 colon and 2120 nM with EKVX NSCLC.
With `NCC1OC(OC2C(CO)OC(OC3C(O)C(N)CC(N)C3OC3OC(CO)C(O)CC3N)C2O)C(N)C(O)C1OC1OC(CO)C(O)C(O)C1O` (stereo unspecified), the GI50 in the experiment with T-47D breast, in the experiment with M14 melanoma, with UO-31 renal, in the experiment with SNB-75 CNS, in the experiment with MCF7 breast and in the experiment on UACC-62 melanoma was above 50 µg/mL each time. For the same compound, the GI50 in the experiment on RPMI-8226 leukemia, in the experiment with BT-549 breast and in the experiment with EKVX NSCLC was above 50 µg/mL throughout. For the same compound, the TGI in the experiment with T-47D breast, in the experiment on M14 melanoma, in the experiment with UO-31 renal, with SNB-75 CNS, in the experiment on MCF7 breast and in the experiment with UACC-62 melanoma was above 50 µg/mL each time. Besides, the TGI with RPMI-8226 leukemia, in the experiment with BT-549 breast and in the experiment on EKVX NSCLC was above 50 µg/mL in each case.
Consider `CC(=O)Nc1ccc(COC(O)CN2CCCCC2)cc1[N+](=O)[O-]` (stereo unspecified), for which the TGI in the experiment with T-47D breast, in the experiment on M14 melanoma, with UO-31 renal, with SNB-75 CNS, in the experiment with MCF7 breast and with UACC-62 melanoma was above 100000 nM in each case. Also, the TGI in the experiment with RPMI-8226 leukemia, in the experiment with BT-549 breast and with HCC-2998 colon was above 100000 nM in each case.
Take `NCOC(=O)Cc1ccc(Br)cc1`: the TGI in the experiment on T-47D breast, in the experiment with M14 melanoma, in the experiment on UO-31 renal, in the experiment with SNB-75 CNS, with MCF7 breast and with UACC-62 melanoma was above 100000 nM throughout. The TGI with RPMI-8226 leukemia, with BT-549 breast and in the experiment on EKVX NSCLC was above 100000 nM throughout.
`O=C1c2cc([N+](=O)[O-])ccc2-c2ccc3c4ccc5c6c(ccc(c7ccc1c2c73)c64)C(=O)c1cc([N+](=O)[O-])ccc1-5`: the TGI in the experiment on T-47D breast, with M14 melanoma, in the experiment with UO-31 renal, in the experiment on SNB-75 CNS, in the experiment with MCF7 breast and in the experiment with UACC-62 melanoma was above 100000 nM in each case. Besides, the TGI in the experiment on RPMI-8226 leukemia, in the experiment on BT-549 breast and in the experiment with EKVX NSCLC was above 100000 nM in each case.
Regarding `CN(Cc1cc(Cl)cc(Cl)c1O)Cc1c(O)ccc2ccccc12`, the TGI worked out at 43000 nM in the experiment with T-47D breast; 39200 nM in the experiment on M14 melanoma; 34700 nM in the experiment on UO-31 renal; 33300 nM in the experiment with SNB-75 CNS; 33200 nM in the experiment with MCF7 breast; 29300 nM in the experiment on UACC-62 melanoma. The TGI with RPMI-8226 leukemia was 73100 nM; in the experiment on BT-549 breast, 32000 nM; with EKVX NSCLC, 46400 nM.
For `COc1ccc(Nc2cc(C)nc(NCCCNc3ccnc4cc(Cl)ccc34)n2)cc1`, the GI50 in the experiment on T-47D breast is 1680 nM; in the experiment with UO-31 renal, 1520 nM; in the experiment with SNB-75 CNS, 1280 nM; in the experiment with MCF7 breast, 1160 nM; with UACC-62 melanoma, 1810 nM; in the experiment on RPMI-8226 leukemia, 1810 nM. The GI50 with BT-549 breast was 1860 nM; in the experiment with HCC-2998 colon, 1650 nM. Besides, the TGI in the experiment with T-47D breast amounted to 3690 nM; in the experiment with UO-31 renal it was 2950 nM; with SNB-75 CNS it was 2540 nM; with MCF7 breast, 2740 nM; with UACC-62 melanoma, 3440 nM; in the experiment on RPMI-8226 leukemia, 5000 nM. Besides, the TGI with BT-549 breast is 4670 nM; with HCC-2998 colon, 3450 nM.
`NC(N)=N/N=C/c1ccc(-c2ccc(-c3cc(Cl)cc(Cl)c3)s2)cc1`: the GI50 with T-47D breast was 2020 nM; with M14 melanoma, 1750 nM; with UO-31 renal, 1500 nM; in the experiment on MCF7 breast, 1100 nM; in the experiment with UACC-62 melanoma it was 1850 nM; in the experiment with RPMI-8226 leukemia, 1780 nM. The GI50 was 2370 nM in the experiment on BT-549 breast, 1940 nM with HCC-2998 colon and 1840 nM with EKVX NSCLC. For the same compound, the TGI with T-47D breast amounted to 4540 nM; in the experiment with M14 melanoma, 3530 nM; with UO-31 renal it was 2970 nM; in the experiment on MCF7 breast it was 3070 nM; with UACC-62 melanoma it was 3720 nM; with RPMI-8226 leukemia it was 4490 nM. The TGI was 7020 nM with BT-549 breast, 3830 nM in the experiment on HCC-2998 colon and 4030 nM in the experiment on EKVX NSCLC.

The record behind these values is PubChem BioAssay (NCI).
